In patent publication US7560262B2, “Polynucleotide sequences encoding alkaline α-galactosidases and methods of using same” (The State of Israel - Ministry of Agriculture & Rural …, priority 2002, dated 2009):
Like-named read-outs stand apart in the source and are kept apart here.

How the values were obtained:
[1] = biological target: recombinant Aga-I (alkaline-α-galactosidase I) (Cucumis melo, UniProt A0ABM3L1M0); test: α-galactosidase assay of E. coli extracts: substrate specificity of recombinant Aga-I; format: biochemical; settings: for Activity (calculated specific activity): recombinant Aga-I, substrate 10 mM, pH 8; for activity of recombinant Aga-I with nitrophenyl substrates: recombinant Aga-I extract
Method: α-galactosidase assay of E. coli extracts—α-galactosidase activity was assayed as described by Smart and Pharr [Smart and Pharr (1980) Plant Physiol. 66:731-734] and as performed by Gao and Schaffer (1999) Plant Physiol. 119:979-987]. Reaction was initiated by adding 50 μl enzyme aliquot to 200 μl McIlvaine buffer (made by mixing stock solutions of 0.1M citric acid and 0.2M sodium hydrogen phosphate to achieve pH of 5.0 and 7.0 for the assay of acid and alkaline activity, respectively) and 50 μl substrate (final concentration, 5 mM for pNPG and 10 mM for the natural substrates). Optimum pH for galactosidase activity was determined using the following reaction buffers: Mcllvaine buffer, over a pH range of 4 to 7, 100 mM Hepes buffer over a pH range of 7 to 8, or 50 mM Tris buffer over a pH range of 8 to 8.7. […] In addition, substrate concentration dependence of the reaction was measured by varying the substrate concentrations from 0-10 mM. Km and Vmax values were calculated using Lineweaver-Burk plots.

[2] = test system: alkaline α-galactosidase from Cucurbita pepo leaves; settings: cited from earlier work; for affinity as substrate: Gaudreault and Webb; for inhibition of the enzyme's activity by the reaction product: Gaudreault and Webb 1983
[3] = substrate: OC[C@H]1O[C@H](OC[C@H]2O[C@H](O[C@]3(CO)O[C@H](CO)[C@@H](O)[C@@H]3O)[C@H](O)[C@@H](O)[C@@H]2O)[C@H](O)[C@@H](O)[C@H]1O; test: purified protein, by the assay type; settings: other: recombinant Aga-I, pH 8, Lineweaver-Burk plots
[4] = substrate: OC[C@H]1O[C@H](OC[C@H]2O[C@H](OC[C@H]3O[C@H](O[C@]4(CO)O[C@H](CO)[C@@H](O)[C@@H]4O)[C@H](O)[C@@H](O)[C@@H]3O)[C@H](O)[C@@H](O)[C@H]2O)[C@H](O)[C@@H](O)[C@H]1O; test: purified protein, by the assay type; settings: other: recombinant Aga-I, pH 8, Lineweaver-Burk plots
[5] = pH and temperature dependence of α-galactosidase activity of recombinant Aga-I and Aga-II; format: biochemical; settings: for pH of maximal α-galactosidase activity: extracts of transformed E. coli, pNPG, FIG. 4
Method: α-galactosidase assay of E. coli extracts—α-galactosidase activity was assayed as described by Smart and Pharr [Smart and Pharr (1980) Plant Physiol. 66:731-734] and as performed by Gao and Schaffer (1999) Plant Physiol. 119:979-987]. Reaction was initiated by adding 50 μl enzyme aliquot to 200 μl McIlvaine buffer (made by mixing stock solutions of 0.1M citric acid and 0.2M sodium hydrogen phosphate to achieve pH of 5.0 and 7.0 for the assay of acid and alkaline activity, respectively) and 50 μl substrate (final concentration, 5 mM for pNPG and 10 mM for the natural substrates). […] Substrates used were the synthetic substrates based on p-nitrophenol (pNP-sugars), including the pNPa-gal (Sigma) and the natural substrates stachyose, raffinose and melibiose. In addition, substrate concentration dependence of the reaction was measured by varying the substrate concentrations from 0-10 mM. Km and Vmax values were calculated using Lineweaver-Burk plots.

6-O-α-D-galactopyranosyl-D-glucose [Melibiose]
Activity (calculated specific activity) [1]: 124 nmol/mg protein/minute | affinity as substrate [2]: low affinity

OC[C@H]1O[C@H](OC[C@H]2O[C@H](O[C@]3(CO)O[C@H](CO)[C@@H](O)[C@@H]3O)[C@H](O)[C@@H](O)[C@@H]2O)[C@H](O)[C@@H](O)[C@H]1O [Raffinose, O-α-D-galactopyranosyl-(1-6)-O-α-D-glucopyranosyl-(1-2)-beta-D-fructofuranoside]
Activity (calculated specific activity) [1]: 482 nmol/mg protein/minute | affinity as substrate [2]: low affinity

OC[C@H]1O[C@H](OC[C@H]2O[C@H](OC[C@H]3O[C@H](O[C@]4(CO)O[C@H](CO)[C@@H](O)[C@@H]4O)[C@H](O)[C@@H](O)[C@@H]3O)[C@H](O)[C@@H](O)[C@H]2O)[C@H](O)[C@@H](O)[C@H]1O [Stachyose, O-α-D-galactopyranosyl-(1-6)-O-α-D-galactopyranosyl-(1-6)-O-α-D-glucopyranosyl-(1-2)-beta-D-fructofuranoside]
Activity (calculated specific activity) [1]: 645 nmol/mg protein/minute

C[C@@H]1O[C@@H](Oc2ccc([N+](=O)[O-])cc2)[C@@H](O)[C@H](O)[C@@H]1O [pNP-Fuc]
activity of recombinant Aga-I with nitrophenyl substrates [1]: no activity

CC(=O)N[C@H]1[C@H](Oc2ccc([N+](=O)[O-])cc2)O[C@H](CO)[C@@H](O)[C@@H]1O [pNP-NacG]
activity of recombinant Aga-I with nitrophenyl substrates [1]: no activity

O=[N+]([O-])c1ccc(O[C@H]2O[C@H](CO)[C@@H](O)[C@H](O)[C@H]2O)cc1 [pNP-αGlu]
activity of recombinant Aga-I with nitrophenyl substrates [1]: no activity

O=[N+]([O-])c1ccc(O[C@H]2O[C@H](CO)[C@@H](O)[C@H](O)[C@@H]2O)cc1 [pNP-αMan]
activity of recombinant Aga-I with nitrophenyl substrates [1]: no activity

O=[N+]([O-])c1ccc(O[C@@H]2O[C@H](CO)[C@H](O)[C@H](O)[C@H]2O)cc1 [pNP-βGal]
activity of recombinant Aga-I with nitrophenyl substrates [1]: some activity

O=[N+]([O-])c1ccc(O[C@@H]2O[C@H](CO)[C@@H](O)[C@H](O)[C@H]2O)cc1 [pNP-βGlu]
activity of recombinant Aga-I with nitrophenyl substrates [1]: no activity

O=[N+]([O-])c1ccc(O[C@@H]2O[C@H](CO)[C@@H](O)[C@H](O)[C@@H]2O)cc1 [pNP-βMan]
activity of recombinant Aga-I with nitrophenyl substrates [1]: no activity

OC[C@H]1O[C@H](O)[C@H](O)[C@@H](O)[C@H]1O [α-D-galactose]
inhibition of the enzyme's activity by the reaction product [2]: strong inhibitor | inhibition of the enzyme's activity by the reaction product ([2]; listed as α-galactose): strongly inhibited

B1: recombinant Aga-I (alkaline-α-galactosidase I) (Cucumis melo) (protein)
chain: MTVGAGITISDANLTVLGNRVLSDVHNNITLTAAPGGGVMNGAFIGVQSDQIGSRRVFPIGKLIGLRFLCAFRFKLWWMTQRMGCSGQEVPFETQFLVVETRDGSNIAGNGEEGDAVYTVFLPILEGDFRAVLQGNDNNEIEICLESGDPSVDGFEGSHLVFVGAGSDPFETITYAVKSVEKHLQTFAHRERKKMPDILNWFGWCTWDAFYTDVTSDGVKKGLESFENGGIPPKFVIIDDGWQSVAKDATSADCKADNTANFANRLTHIKENYKFQKDGKEGERIENPALGLQHIVSYMKEKHATKYVYVWHAITGYWGGVSAGVKEMEQYESKIAYPVASPGVESNEPCDALNSITKTGLGLVNPEKVFNFYNEQHSYLASAGVDGVKVDVQNILETLGAGHGGRVKLARKYHQALEASISRNFQDNGIISCMSHNTDGLYSSKRNAVIRASDDFWPRDPASHTIHIASVAYNSLFLGEFMQPDWDMFHSLHPMAEYHGAARAVGGCAIYVSDKPGQHDFNLLKKLVLPDGSILRAKLPGRPTKDCLFTDPARDGKSLLKIWNLNDLSGVVGVFNCQGAGWCKVGKKNLIHDENPDTITGVIRAKDVSYLWKIAGESWTGDAVIFSHLAGEVVYLPQDASMPITLKPREFDVFTVVPVKELVNDIKFAPIGLIKMFNSGGAVKEMNHQPGSSNVSLKVRGSGPFGAYSSSKPKRVAVDSEEVEFMYDEGGLITIDLKVPEKELYLWDIRIEL
Km [3]: 1800 µM | Km [4]: 1900 µM

B2: Aga-I: Cucumis melo alkaline-α-galactosidase I, SEQ ID NO: 6, encoded by SEQ ID NO: 5 (protein)
chain: B1 chain
modifications: Cucumis melo
pH of maximal α-galactosidase activity [5]: 8 pH | galactosidase activity at pH 9 ([5]; pH 9, data not shown): activity was still observed | pH range of highest galactosidase activity ([5]; recombinant Aga-I, data not shown): 7.5-8 pH

B3: Aga-II: Cucumis melo alkaline α-galactosidase II, SEQ ID NO: 10, encoded by SEQ ID NO: 9 (protein)
chain: MTVTPKISVNDGNLVVHGKTILTGVPDNIVLTPGSGLGLVAGAFIGATASNSKSLHVFPVGVLEGTRFLCCFRFKLWWMTQRMGTSGRDIPFETQFLLMESKGNDGEDPDNSSTIYTVFLPLLEGQFRAALQGNEKNEMEICLESGDNTVETNQGLSLVYMHAGTNPFEVITQAVKAVEKHTQTFLHREKKKLPSFLDWFGWCTWDAFYTDVTAEGVVEGLKSLSEGGAPPKFLIIDDGWQQIEAKPKDADCVVQEGAQFASRLSGIKENHKFQKNGNNYDQVPGLKVVVDDAKKQHKVKFVYAWHALAGYWGGVKPASPGMEHYDSALAYPVQSPGMLGNQPDIVVDSLAVHGIGLVHPKKVFNFYNELHSYLASCGIDGVKVDVQNIIETLGAGHGGRVTLTRSYHQALEASIARNFSDNGCIACMCHNTDSLYSAKQTAVVRASDDYYPRDPASHTIHISSVAYNSLFLGEFMQPDWDMFHSLHPTAEYHGAARAIGGCAIYVSDKPGNHNFDLLKKLVLPDGSVLRAQLPGRPTRDSLFNDPARDGTSLLKIWNMNKCSGVVGVFNCQGAGWCRITKKTRIHDESPGTLTTSVRAADVDAISQVAGADWKGDTIVYAYRSGDLIRLPKGASVPVTLKVLEYDLLHISPLKDIASNISFAPIGLLDMFNTGGAVEQVNVQVVEPIPEFDGEVASELTCSLPNDRPPTATITMKARGCRRFGLYSSQRPLKCSVDKVDVDFVYDEVTGLVTFEIPIPTEEMYRWNIEIQV
modifications: Cucumis melo
pH of maximal α-galactosidase activity [5]: 8 pH
